Measured values published in US9957265B2, “N-(2-cyano heterocyclyl) pyrazolo pyridones as janus kinase inhibitors” (Merck Sharp & Dohme Corp., priority 2013, dated 2018).
Read-outs that look alike come from different tables or passages of the source.

What was measured:
[1] = target: JAK1 (Homo sapiens (Human), UniProt P23458); assay: Jak Biochemical HTRF Assay (JAK1); details: recombinant GST-tagged catalytic domain, [ATP] 31.8 μM, unit not given (compound concentrations tested given in nM)
Text: Jak Biochemical HTRF Assay Protocol
Subsequent reagent additions employed an Agilent Bravo.

[2] = target: JAK2 (Homo sapiens (Human), UniProt O60674); assay: Jak Biochemical HTRF Assay (JAK2)
Chain of JAK2 (O60674 849-1124): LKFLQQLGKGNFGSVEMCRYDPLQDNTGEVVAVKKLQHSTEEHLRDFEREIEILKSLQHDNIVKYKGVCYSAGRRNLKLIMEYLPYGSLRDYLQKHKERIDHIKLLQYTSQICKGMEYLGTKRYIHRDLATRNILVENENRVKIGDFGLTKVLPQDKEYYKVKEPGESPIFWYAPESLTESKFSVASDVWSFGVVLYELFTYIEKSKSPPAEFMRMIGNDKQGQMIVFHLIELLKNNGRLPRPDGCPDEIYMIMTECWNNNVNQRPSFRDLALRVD
Procedure: The ability of compounds to inhibit the activity of JAK1, JAK2, JAK3, and TYK2 was measured using a recombinant purified GST-tagged catalytic domain for each enzyme (Invitrogen JAK1 #M4290, JAK2 #M4290, JAK3 #M4290, TYK2 #M4290) in an HTRF format biochemical assay. […] Subsequent reagent additions employed an Agilent Bravo. […] After equilibration, 2 μL of 10×ATP in 1× assay buffer was added to initiate the kinase reaction and the plates were shaken and then incubated at room temperature for 120 minutes. […] After normalization to untreated controls, the percent inhibition of the HTRF signal at each compound concentration was calculated. The plot of percent inhibition versus the log of compound concentration was fit with a 4-parameter dose response equation to calculate IC50 values.
Final reaction conditions were:

[3] = JAK2 IC50, recombinant GST-tagged catalytic domain, [ATP] 8.5 μM, unit not given (compound concentrations tested given in nM)

Chain of JAK1 (P23458 875-1153): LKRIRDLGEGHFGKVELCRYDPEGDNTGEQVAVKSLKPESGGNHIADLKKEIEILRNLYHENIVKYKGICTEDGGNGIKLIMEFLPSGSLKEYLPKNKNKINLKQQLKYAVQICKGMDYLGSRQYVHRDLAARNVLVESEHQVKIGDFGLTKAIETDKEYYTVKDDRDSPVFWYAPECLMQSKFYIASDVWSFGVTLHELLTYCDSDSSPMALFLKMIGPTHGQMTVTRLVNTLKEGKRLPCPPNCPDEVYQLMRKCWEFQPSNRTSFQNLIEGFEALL

For `CCNC(c1ccc(Nc2nn([C@H]3COCC[C@@H]3C#N)c3cc[nH]c(=O)c23)cc1)C(F)(F)F` (single isomer, unassigned) [Example 1-55, (3R,4S)-3-[3-({4-[(1S or 1R)-1-(ethylamino)-2,2,2-trifluoroethyl]phenyl}amino)-4-oxo-4,5-dihydro-1H-pyrazolo[4,3-c]pyridin-1-yl] tetrahydro-2H-pyran-4-carbonitrile], which IC50 [1] is on record?
The IC50 was 0.08 nM.

What about the IC50 [2, 3] of the same compound?
Its IC50 is 0.12 nM.

What does the source list for `CN(C)C(c1ccc(Nc2nn([C@H]3COCC[C@@H]3C#N)c3cc[nH]c(=O)c23)cc1)C(F)(F)F` (single isomer, unassigned) [Example 1-58, (3R,4S)-3-[3-({4-[(1R or 1S)-1-(dimethylamino)-2,2,2-trifluoroethyl]phenyl}amino)-4-oxo-4,5-dihydro-1H-pyrazolo[4,3-c]pyridin-1-yl]tetrahydro-2H-pyran-4-carbonitrile]?
IC50 [1]: 0.07 nM; IC50 [2, 3]: 0.13 nM

Which results are given for `CN(C)C(c1ccc(Nc2nn([C@H]3COCC[C@@H]3C#N)c3cc[nH]c(=O)c23)cc1)C(F)(F)F` (single isomer, unassigned) [Example 1-59, (3R,4S)-3-[3-({4-[(1S or 1R)-1-(dimethylamino)-2,2,2-trifluoroethyl]phenyl}amino)-4-oxo-4,5-dihydro-1H-pyrazolo[4,3-c]pyridin-1-yl]tetrahydro-2H-pyran-4-carbonitrile]?
IC50 [1]: 0.05 nM; IC50 [2, 3]: 0.08 nM

For `CC1CN(S(=O)(=O)c2ccc(Nc3nn([C@H]4COCC[C@@H]4C#N)c4cc[nH]c(=O)c34)cc2)CCO1` (single isomer, unassigned) [Example 1-74, (3R,4S)-3-{3-[(4-{[(2S or 2R)-2-methylmorpholin-4-yl]sulfonyl}phenyl)amino]-4-oxo-4,5-dihydro-1H-pyrazolo[4,3-c]pyridin-1-yl}tetrahydro-2H-pyran-4-carbonitrile], which IC50 [1] is on record?
Its IC50 is 0.18 nM.

What about the IC50 [2, 3] of the same compound?
Its IC50 is 0.52 nM.

How did the IC50 [1] turn out when `CC1CN(S(=O)(=O)c2ccc(Nc3nn([C@H]4COCC[C@@H]4C#N)c4cc[nH]c(=O)c34)cc2)CCO1` (single isomer, unassigned) [Example 1-75, (3R,4S)-3-{3-[(4-{[(2R or 2S)-2-methylmorpholin-4-yl]sulfonyl}phenyl)amino]-4-oxo-4,5-dihydro-1H-pyrazolo[4,3-c]pyridin-1-yl}tetrahydro-2H-pyran-4-carbonitrile] was run?
The IC50 was 0.14 nM.

And the IC50 [2, 3]?
Its IC50 is 0.54 nM.

What does the source list for `CC1CCN1S(=O)(=O)c1ccc(Nc2nn([C@H]3COCC[C@@H]3C#N)c3cc[nH]c(=O)c23)cc1` (single isomer, unassigned) [Example 1-77, (3R,4S)-3-{3-[(4-{[(2R or 2S)-2-methylazetidin-1-yl]sulfonyl}phenyl)amino]-4-oxo-4,5-dihydro-1H-pyrazolo[4,3-c]pyridin-1-yl}tetrahydro-2H-pyran-4-carbonitrile]?
IC50 [1]: 0.05 nM; IC50 [2, 3]: 0.17 nM

With `CC1CCN1S(=O)(=O)c1ccc(Nc2nn([C@H]3COCC[C@@H]3C#N)c3cc[nH]c(=O)c23)cc1` (single isomer, unassigned) [Example 1-78, (3R,4S)-3-{3-[(4-{[(2S or 2R)-2-methylazetidin-1-yl]sulfonyl}phenyl)amino]-4-oxo-4,5-dihydro-1H-pyrazolo[4,3-c]pyridin-1-yl}tetrahydro-2H-pyran-4-carbonitrile] as the compound, how does the IC50 [1] read?
The IC50 was 0.12 nM.

And the IC50 [2, 3]?
Its IC50 is 0.24 nM.

With `N#C[C@H]1CCOC[C@@H]1n1nc(Nc2ccc(C(NC3CC3)C(F)(F)F)cc2)c2c(=O)[nH]ccc21` (single isomer, unassigned) [Example 1-80, (3R,4S)-3-[3-({4-[(1S or 1R)-1-(cyclopropylamino)-2,2,2-trifluoroethyl]phenyl}amino)-4-oxo-4,5-dihydro-1H-pyrazolo[4,3-c]pyridin-1-yl]tetrahydro-2H-pyran-4-carbonitrile] as the compound, how does the IC50 [1] read?
Its IC50 is 0.07 nM.

And the IC50 [2, 3]?
The IC50 was 0.15 nM.

For `N#C[C@H]1CCOC[C@@H]1n1nc(Nc2ccc(C(NC3CC3)C(F)(F)F)cc2)c2c(=O)[nH]ccc21` (single isomer, unassigned) [Example 1-81, (3R,4S)-3-[3-({4-[(1R or 1S)-1-(cyclopropylamino)-2,2,2-trifluoroethyl]phenyl}amino)-4-oxo-4,5-dihydro-1H-pyrazolo[4,3-c]pyridin-1-yl]tetrahydro-2H-pyran-4-carbonitrile], which IC50 [1] is on record?
The IC50 was 0.08 nM.

And the IC50 ([2]; read-out: JAK2 IC50, recombinant GST-tagged catalytic domain, [ATP] 8.5 μM, unit not given (compound concentrations tested given in nM))?
The IC50 was 0.15 nM.

How did the IC50 [1] turn out when `CC(C)(C)CNC(c1ccc(Nc2nn([C@H]3COCC[C@@H]3C#N)c3cc[nH]c(=O)c23)cc1)C(F)(F)F` (single isomer, unassigned) [Example 1-82, (3R,4S)-3-{3-[(4-{[1S or 1R)-1-[(2,2-dimethylpropyl)amino]-2,2,2-trifluoroethyl}phenyl)amino]-4-oxo-4,5-dihydro-1H-pyrazolo[4,3-c]pyridin-1-yl} tetrahydro-2H-pyran-4-carbonitrile] was run?
Its IC50 is 0.87 nM.

And the IC50 [2, 3]?
Its IC50 is 2.56 nM.

How did the IC50 [1] turn out when `CC(C)(C)CNC(c1ccc(Nc2nn([C@H]3COCC[C@@H]3C#N)c3cc[nH]c(=O)c23)cc1)C(F)(F)F` (single isomer, unassigned) [Example 1-83, (3R,4S)-3-{3-[(4-{(1R or 1S)-1-[(2,2-dimethylpropyl)amino]-2,2,2-trifluoroethyl}phenyl)amino]-4-oxo-4,5-dihydro-1H-pyrazolo[4,3-c]pyridin-1-yl} tetrahydro-2H-pyran-4-carbonitrile] was run?
Its IC50 is 0.5 nM.

What about the IC50 [2, 3] of the same compound?
The IC50 was 1.06 nM.

What does the source list for `N#C[C@H]1CCOC[C@@H]1n1nc(Nc2ccc(C(NC3CCCC3)C(F)(F)F)cc2)c2c(=O)[nH]ccc21` (single isomer, unassigned) [Example 1-84, (3R,4S)-3-[3-({4-[(1S or 1R)-1-(cyclopentylamino)-2,2,2-trifluoroethyl]phenyl}amino)-4-oxo-4,5-dihydro-1H-pyrazolo[4,3-c]pyridin-1-yl]tetrahydro-2H-pyran-4-carbonitrile]?
IC50 [1]: 0.13 nM; IC50 [2, 3]: 0.15 nM

What does the source list for `N#C[C@H]1CCOC[C@@H]1n1nc(Nc2ccc(C(NC3CCCC3)C(F)(F)F)cc2)c2c(=O)[nH]ccc21` (single isomer, unassigned) [Example 1-85, (3R,4S)-3-[3-({4-[(1R or 1S)-1-(cyclopentylamino)-2,2,2-trifluoroethyl]phenyl}amino)-4-oxo-4,5-dihydro-1H-pyrazolo[4,3-c]pyridin-1-yl]tetrahydro-2H-pyran-4-carbonitrile]?
IC50 [1]: 0.12 nM; IC50 [2, 3]: 0.14 nM

With `CC1CCCN1C(c1ccc(Nc2nn([C@H]3COCC[C@@H]3C#N)c3cc[nH]c(=O)c23)cc1)C(F)(F)F` (single isomer, unassigned) [Example 1-86, (3R,4S)-3-{4-oxo-3-[(4-{(1R or 1S)-2,2,2-trifluoro-1-[(2S or 2R)-2-methylpyrrolidin-1-yl]ethyl}phenyl)amino]-4,5-dihydro-1H-pyrazolo[4,3-c]pyridin-1-yl}tetrahydro-2H-pyran-4-carbonitrile] as the compound, how does the IC50 [1] read?
The IC50 was 0.15 nM.

And the IC50 [2, 3]?
Its IC50 is 0.23 nM.

With `CC1CCCN1C(c1ccc(Nc2nn([C@H]3COCC[C@@H]3C#N)c3cc[nH]c(=O)c23)cc1)C(F)(F)F` (single isomer, unassigned) [Example 1-87, (3R,4S)-3-{4-oxo-3-[(4-{(1S or 1R)-2,2,2-trifluoro-1-[(2R or 2S)-2-methylpyrrolidin-1-yl]ethyl}phenyl)amino]-4,5-dihydro-1H-pyrazolo[4,3-c]pyridin-1-yl}tetrahydro-2H-pyran-4-carbonitrile] as the compound, how does the IC50 [1] read?
The IC50 was 0.15 nM.

What about the IC50 [2, 3] of the same compound?
The IC50 was 0.3 nM.
